According to patent EP0551518A1, “QUINOLINECARBOXYLIC ACID DERIVATIVE” (NIPPON SHINYAKU COMPANY, LIMITED, priority 1990, dated 1992):
In brackets after ≈: the same amount, converted by molar mass. Structures can show the parent of a compound that is named as a salt. Where two headings read alike, the source gives them in different places.

Assays:
Format in all cases: cell-based
S. aureus OWPH 1793 = assay: Determination of minimal inhibitory concentration (MIC)-2, new quinolone-resistant MRSA; details: Staphylococcus aureus, OWPH1793, 18 h; S. aureus OWPH 1793, new quinolone-resistant and methicillin-resistant; same procedure as Test Example 1
Procedure: (§1) Method: MIC was determined by the agar plate dilution method in accordance with the standard protocol of Japan Society of Chemotherapy (cf. Chemotherapy 29 (1), 76-79, 1981). Each bacterial culture obtained by 18-hour incubation in a sensitivity assay bouillon medium at 37°C was diluted to 10⁶ CFU/ml with the same medium. Using a microplanter, a sensitivity assay agar medium containing the test drug was inoculated with the diluted culture and incubated at 37°C for 18 hours. The MIC value was then determined. As reference drugs, 6-fluoro-1-methyl-4-oxo-7-(1-piperazinyl)-4H-[1,3]thiazeto[3,2-a]quinoline-3-carboxylic acid (referred to as control), ciprofloxacin (CPFX) and ofloxacin (OFLX) were used.
(§2) The antibacterial activity of the compounds obtained in Example 4, Example 25 and Example 26 of the present invention was assayed by the same procedure as in Test Example 1. As reference drugs, 6-fluoro-1-methyl-4-oxo-7-(1-piperazinyl)-4H-[1,3]-thiazeto[3,2-a]quinoline-3-carboxylic acid (referred to as Control), norfloxacin (NFLX) and tosufloxacin (TFLX) were used.

S. aureus OWPH 2124 = assay: as above; details: Staphylococcus aureus, OWPH2124, 18 h; S. aureus OWPH 2124, new quinolone-resistant and methicillin-resistant; same procedure as Test Example 1
Procedure: as §1, §2

S. aureus Sh 44 = assay: as above; details: Staphylococcus aureus, SH44, 18 h; S. aureus Sh 44, new quinolone-resistant and methicillin-resistant; same procedure as Test Example 1
Procedure: as §1, §2

S. aureus OWPH 1773 = assay: as above; details: Staphylococcus aureus, OWPH1773, 18 h; S. aureus OWPH 1773, new quinolone-resistant and methicillin-resistant; same procedure as Test Example 1
Procedure: as §1, §2

S. aureus OWPH 2134 = assay: as above; details: Staphylococcus aureus, OWPH2134, 18 h; S. aureus OWPH 2134, new quinolone-resistant and methicillin-resistant; same procedure as Test Example 1
Procedure: as §1, §2

S. aureus Sh 2 = assay: as above; details: Staphylococcus aureus, SH2, 18 h; S. aureus Sh 2, new quinolone-resistant and methicillin-resistant; same procedure as Test Example 1
Procedure: as §1, §2

S. aureus OWPH 2128 = assay: as above; details: Staphylococcus aureus, OWPH2128, 18 h; S. aureus OWPH 2128, new quinolone-resistant and methicillin-resistant; same procedure as Test Example 1
Procedure: as §1, §2

S. aureus Sh 47 = assay: as above; details: Staphylococcus aureus, SH47, 18 h; S. aureus Sh 47, new quinolone-resistant and methicillin-resistant; same procedure as Test Example 1
Procedure: as §1, §2

S. aureus OWPH 1792 = assay: as above; details: Staphylococcus aureus, OWPH1792, 18 h; S. aureus OWPH 1792, new quinolone-resistant and methicillin-resistant; same procedure as Test Example 1
Procedure: as §1, §2

S. aureus OWPH 1799 = assay: as above; details: Staphylococcus aureus, OWPH1799, 18 h; S. aureus OWPH 1799, new quinolone-resistant and methicillin-resistant; same procedure as Test Example 1
Procedure: as §1, §2

S. aureus Sh 54 = assay: as above; details: Staphylococcus aureus, SH54, 18 h; S. aureus Sh 54, new quinolone-resistant and methicillin-resistant; same procedure as Test Example 1
Procedure: as §1, §2

S. aureus OWPH 2133 = assay: as above; details: Staphylococcus aureus, OWPH2133, 18 h; S. aureus OWPH 2133, new quinolone-resistant and methicillin-resistant; same procedure as Test Example 1
Procedure: as §1, §2

S. aureus OWPH 1786 = assay: as above; details: Staphylococcus aureus, OWPH1786, 18 h; S. aureus OWPH 1786, new quinolone-resistant and methicillin-resistant; same procedure as Test Example 1
Procedure: as §1, §2

S. aureus OWPH 2127 = assay: as above; details: Staphylococcus aureus, OWPH2127, 18 h; S. aureus OWPH 2127, new quinolone-resistant and methicillin-resistant; same procedure as Test Example 1
Procedure: as §1, §2

S. aureus OWPH 1770 = assay: as above; details: Staphylococcus aureus, OWPH1770, 18 h; S. aureus OWPH 1770, new quinolone-resistant and methicillin-resistant; same procedure as Test Example 1
Procedure: as §1, §2

S. aureus Sh 8 = assay: as above; details: Staphylococcus aureus, SH8, 18 h; S. aureus Sh 8, new quinolone-resistant and methicillin-resistant; same procedure as Test Example 1
Procedure: as §1, §2

S. aureus OWPH 1796 = assay: as above; details: Staphylococcus aureus, OWPH1796, 18 h; S. aureus OWPH 1796, new quinolone-resistant and methicillin-resistant; same procedure as Test Example 1
Procedure: as §1, §2

[1] = tested on: Staphylococcus aureus OWPH 1984 (MRSA); assay: Determination of minimal inhibitory concentration of growth (MIC)-1, agar plate dilution method; details: Staphylococcus aureus OWPH 1984 (MRSA), agar plate dilution, 10⁶ CFU/ml, 37°C, 18 hours
Procedure: as §1

[2] = tested on: Staphylococcus aureus OWPH 2125 (MRSA, PCA^r ); assay: as above; details: Staphylococcus aureus OWPH 2125 (MRSA, PCA^r), agar plate dilution, 10⁶ CFU/ml, 37°C, 18 hours
Procedure: as §1

[3] = tested on: Bacillus subtilis ATCC 6633; assay: as above; details: Bacillus subtilis ATCC 6633, agar plate dilution, 10⁶ CFU/ml, 37°C, 18 hours
Procedure: as §1

[4] = tested on: Staphylococcus aureus Smith; assay: as above; details: Staphylococcus aureus Smith, agar plate dilution, 10⁶ CFU/ml, 37°C, 18 hours
Procedure: as §1

Escherichia coli KC-14 = assay: as above; details: 10⁶ CFU/ml, 37°C
Procedure: as §1

[5] = tested on: Micrococcus luteus ATCC 9341; assay: as above; details: Micrococcus luteus ATCC 9341, agar plate dilution, 10⁶ CFU/ml, 37°C, 18 hours
Procedure: as §1

[6] = tested on: Enterococcus faecalis ATCC 29212; assay: as above; details: Enterococcus faecalis ATCC 29212, agar plate dilution, 10⁶ CFU/ml, 37°C, 18 hours
Procedure: as §1

[7] = tested on: Pseudomonas aeruginosa IFO 3445; assay: as above; details: Pseudomonas aeruginosa IFO 3445, agar plate dilution, 10⁶ CFU/ml, 37°C, 18 hours
Procedure: as §1

Proteus vulgaris HX-19 = assay: as above; details: Proteus vulgaris HX-19, agar plate dilution, 10⁶ CFU/ml, 37°C, 18 hours
Procedure: as §1

[8] = tested on: Staphylococcus epider-midis IFO 12993; assay: as above; details: Staphylococcus epider-midis IFO 12993, agar plate dilution, 10⁶ CFU/ml, 37°C, 18 hours
Procedure: as §1

[9] = tested on: Staphylococcus aureus 209-P JC-1; assay: as above; details: Staphylococcus aureus 209-P JC-1, agar plate dilution, 10⁶ CFU/ml, 37°C, 18 hours
Procedure: as §1

[10] = Staphylococcus aureus, MRSA, 18 h, read-out: MIC
[11] = Escherichia coli, KC14, 18 h, read-out: MIC
[12] = Pseudomonas aeruginosa, IFO3445, 18 h, read-out: MIC
[13] = Proteus vulgaris, HX19, 18 h, read-out: MIC
[14] = Staphylococcus, IFO12993, 18 h, read-out: MIC

Row | SMILES | MIC (S. aureus OWPH 1793) [µg/mL] | MIC (S. aureus OWPH 2124) [µg/mL] | MIC (S. aureus Sh 44) [µg/mL] | MIC (S. aureus OWPH 1773) [µg/mL] | MIC (S. aureus OWPH 2134) [µg/mL] | MIC (S. aureus Sh 2) [µg/mL] | MIC (S. aureus OWPH 2128) [µg/mL] | MIC (S. aureus Sh 47) [µg/mL] | MIC (S. aureus OWPH 1792) [µg/mL] | MIC (S. aureus OWPH 1799) [µg/mL] | MIC (S. aureus Sh 54) [µg/mL] | MIC (S. aureus OWPH 2133) [µg/mL] | MIC (S. aureus OWPH 1786) [µg/mL] | MIC (S. aureus OWPH 2127) [µg/mL] | MIC (S. aureus OWPH 1770) [µg/mL] | MIC (S. aureus Sh 8) [µg/mL] | MIC (S. aureus OWPH 1796) [µg/mL] | MIC [1, 10] [µg/mL] | MIC ([3]; ATCC6633, read-out: MIC) [µg/mL] | MIC ([4]; read-out: MIC) [µg/mL] | also measured
1 | CC1Sc2c(C(=O)O)c(=O)c3cc(F)c(N4CCNCC4)cc3n21 (centres unmarked) [Control, 6-fluoro-1-methyl-4-oxo-7-(1-piperazinyl)-4H-[1,3]thiazeto[3,2-a]quinoline-3-carboxylic acid, reference compound] | > 100 | 12.5 (≈ 35.8 µM) | 50 (≈ 143 µM) | 100 (≈ 286 µM) | 50 (≈ 143 µM) | 100 (≈ 286 µM) | > 100 | 100 (≈ 286 µM) | 100 (≈ 286 µM) | > 100 | > 100 | 25 (≈ 71.6 µM) | > 100 | > 100 | 50 (≈ 143 µM) | 100 (≈ 286 µM) | 25 (≈ 71.6 µM) | 0.39 (≈ 1.12 µM) | 0.1 (≈ 0.286 µM) | 0.1 (≈ 0.286 µM) | MIC [2, 10]: 12.5 µg/mL (≈ 35.8 µM); MIC (Escherichia coli KC-14; [11]): 0.012 µg/mL (≈ 0.0343 µM); MIC ([5]; ATCC9341, read-out: MIC): 1.56 µg/mL (≈ 4.46 µM); MIC ([6]; ATCC29212, read-out: MIC): 0.39 µg/mL (≈ 1.12 µM); MIC [7, 12]: 0.05 µg/mL (≈ 0.143 µM); MIC (Proteus vulgaris HX-19; [13]): 0.025 µg/mL (≈ 0.0716 µM); MIC [8, 14]: 0.2 µg/mL (≈ 0.572 µM); MIC ([9]; Staphylococcus aureus, 209P, 18 h, read-out: MIC): 0.1 µg/mL (≈ 0.286 µM)
2 | CC1Sc2c(C(=O)O)c(=O)c3cc(F)c(-c4ccc(N)cc4)cc3n21 (centres unmarked) [Example 4, 7-(4-Aminophenyl)-6-fluoro-1-methyl-4-oxo-4H-[1,3]thia-zeto[3,2-a]quinoline-3-carboxylic acid] | 1.56 (≈ 4.38 µM) | 0.78 (≈ 2.19 µM) | 0.78 (≈ 2.19 µM) | 0.78 (≈ 2.19 µM) | 0.78 (≈ 2.19 µM) | 0.78 (≈ 2.19 µM) | 1.56 (≈ 4.38 µM) | 0.78 (≈ 2.19 µM) | 0.78 (≈ 2.19 µM) | 1.56 (≈ 4.38 µM) | 0.78 (≈ 2.19 µM) | 0.78 (≈ 2.19 µM) | 1.56 (≈ 4.38 µM) | 1.56 (≈ 4.38 µM) | 0.2 (≈ 0.561 µM) | 0.78 (≈ 2.19 µM) | 0.78 (≈ 2.19 µM) | ≤ 0.006 | ≤ 0.006 | ≤ 0.006 | MIC [2]: ≤ 0.006 μ g/ml; MIC (Escherichia coli KC-14; [11]): 0.025 µg/mL (≈ 0.0702 µM); MIC ([5]; ATCC9341, read-out: MIC): 0.2 µg/mL (≈ 0.561 µM); MIC ([6]; ATCC29212, read-out: MIC): 0.05 µg/mL (≈ 0.14 µM); MIC [7, 12]: 0.1 µg/mL (≈ 0.281 µM); MIC (Proteus vulgaris HX-19; [13]): 0.012 µg/mL (≈ 0.0337 µM); MIC [8, 14]: ≤ 0.006 µg/mL; MIC [9]: 0.012 μ g/ml
3 | CC1Sc2c(C(=O)O)c(=O)c3cc(F)c(-c4ccc(N)cc4)cc3n21 (centres unmarked) [Example 56, 7-(4-Aminophenyl)-6-fluoro-1-methyl-4-oxo-4H-[1,3]thiazeto[3,2-a]quinoline-3-carboxylic acid 1/2 sulfate] |  |  |  |  |  |  |  |  |  |  |  |  |  |  |  |  |  |  |  |  | MIC [1]: 0.012 μ g/ml; MIC [2]: 0.05 μ g/ml; MIC [3]: ≤ 0.006 μ g/ml; MIC [4]: ≤ 0.006 μ g/ml; MIC (Escherichia coli KC-14; 18 hours): 0.05 μ g/ml; MIC [5]: 0.20 μ g/ml; MIC [6]: 0.05 μ g/ml; MIC [7]: 0.20 μ g/ml; MIC (Proteus vulgaris HX-19): ≤ 0.006 μ g/ml; MIC [8]: 0.012 μ g/ml; MIC [9]: 0.025 μ g/ml
4 | CCn1cc(C(=O)O)c(=O)c2cc(F)c(N3CCNCC3)cc21 [NFLX, norfloxacin, reference compound] | > 100 | > 100 | > 100 | > 100 | > 100 | > 100 | > 100 | > 100 | > 100 | > 100 | > 100 | > 100 | > 100 | > 100 | > 100 | > 100 | > 100 |  |  |  | 
5 | NC1CCN(c2nc3c(cc2F)c(=O)c(C(=O)O)cn3-c2ccc(F)cc2F)C1 (centres unmarked) [TFLX, tosufloxacin, reference compound] | > 100 | 12.5 (≈ 30.9 µM) | > 100 | > 100 | > 100 | > 100 | > 100 | > 100 | > 100 | > 100 | > 100 | > 100 | > 100 | > 100 | > 100 | > 100 | > 100 |  |  |  | 
